Test results: ChEMBL document CHEMBL3886759, “Indole-1-carboxamides as kinase inhibitors” (2016)

Experiments:
[1] = molecular target: Vascular endothelial growth factor receptor 2 (Homo sapiens, UniProt P35968); experiment: (§1) Kinase Assay: Biochemical KDR kinase assays were performed in 96 well microtiter plates that were coated overnight with 75 μg/well of poly-Glu-Tyr (4:1) in 10 mM Phosphate Buffered Saline (PBS), pH 7.4. The coated plates were washed with 2 mls per well PBS+0.05% Tween-20 (PBS-T), blocked by incubation with PBS containing 1% BSA, then washed with 2 mls per well PBS-T prior to starting the reaction. Reactions were carried out in 100 μL reaction volumes containing 2.7 μM ATP in kinase buffer (50 mM Hepes buffer pH 7.4, 20 mM MgCl2, 0.1 mM MnCl2 and 0.2 mM Na3VO4). Test compounds were reconstituted in 100% DMSO and added to the reaction to give a final DMSO concentration of 5%. Reactions were initiated by the addition 20 ul per well of kinase buffer containing 200-300 ng purified cytoplasmic domain KDR protein (BPS Bioscience, San Diego, Calif.).
Sequence of Vascular endothelial growth factor receptor 2 (P35968 whole entry, the tested form may be a part): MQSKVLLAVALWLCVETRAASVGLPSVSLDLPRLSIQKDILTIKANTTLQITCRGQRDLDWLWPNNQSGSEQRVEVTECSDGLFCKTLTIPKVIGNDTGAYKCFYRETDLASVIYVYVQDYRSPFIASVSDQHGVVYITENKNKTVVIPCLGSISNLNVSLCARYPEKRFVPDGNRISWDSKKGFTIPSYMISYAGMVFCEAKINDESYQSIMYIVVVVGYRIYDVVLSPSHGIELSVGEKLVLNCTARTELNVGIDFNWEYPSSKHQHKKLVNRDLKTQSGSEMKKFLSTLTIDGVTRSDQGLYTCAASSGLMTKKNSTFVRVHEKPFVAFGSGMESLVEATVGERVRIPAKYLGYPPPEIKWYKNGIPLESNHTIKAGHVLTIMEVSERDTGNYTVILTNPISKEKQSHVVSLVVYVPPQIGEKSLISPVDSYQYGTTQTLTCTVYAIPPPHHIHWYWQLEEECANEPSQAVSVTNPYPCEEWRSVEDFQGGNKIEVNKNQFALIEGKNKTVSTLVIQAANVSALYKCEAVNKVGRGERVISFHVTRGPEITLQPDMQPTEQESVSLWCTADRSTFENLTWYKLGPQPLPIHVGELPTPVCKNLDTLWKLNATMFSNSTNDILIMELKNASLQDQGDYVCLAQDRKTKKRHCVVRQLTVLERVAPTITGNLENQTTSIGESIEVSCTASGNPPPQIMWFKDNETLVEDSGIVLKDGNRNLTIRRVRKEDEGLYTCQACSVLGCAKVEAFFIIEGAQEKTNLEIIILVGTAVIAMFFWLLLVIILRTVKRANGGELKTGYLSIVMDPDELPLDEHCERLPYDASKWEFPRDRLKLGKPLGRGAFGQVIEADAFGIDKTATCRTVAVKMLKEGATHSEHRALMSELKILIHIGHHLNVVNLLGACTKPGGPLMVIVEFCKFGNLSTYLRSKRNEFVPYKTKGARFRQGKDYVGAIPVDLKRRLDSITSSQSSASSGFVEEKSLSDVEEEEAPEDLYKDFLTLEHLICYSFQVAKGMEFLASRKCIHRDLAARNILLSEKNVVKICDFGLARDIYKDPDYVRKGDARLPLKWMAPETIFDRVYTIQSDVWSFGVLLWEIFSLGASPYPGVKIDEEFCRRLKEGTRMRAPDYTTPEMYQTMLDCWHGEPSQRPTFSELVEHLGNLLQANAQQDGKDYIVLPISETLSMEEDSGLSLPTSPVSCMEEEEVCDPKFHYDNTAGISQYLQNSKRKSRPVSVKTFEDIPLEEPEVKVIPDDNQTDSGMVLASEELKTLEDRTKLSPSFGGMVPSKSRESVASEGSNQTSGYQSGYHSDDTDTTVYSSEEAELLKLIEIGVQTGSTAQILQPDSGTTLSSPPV

[2] = molecular target: Platelet-derived growth factor receptor beta (Homo sapiens, UniProt P09619); experiment: as §1, with “Biochemical PDGFRβ” for “Biochemical KDR”, “75 μg” for “75 μg/well”, “containing 36” for “containing 2.7”, “domain PDGFR-b” for “domain KDR”, “protein (Millipore). Following a 60 minute incubation at 30° C., the reactions were washed 2 mls per well PBS-T.” for “protein (BPS Bioscience, San Diego, Calif.).”
Sequence of Platelet-derived growth factor receptor beta (P09619 whole entry): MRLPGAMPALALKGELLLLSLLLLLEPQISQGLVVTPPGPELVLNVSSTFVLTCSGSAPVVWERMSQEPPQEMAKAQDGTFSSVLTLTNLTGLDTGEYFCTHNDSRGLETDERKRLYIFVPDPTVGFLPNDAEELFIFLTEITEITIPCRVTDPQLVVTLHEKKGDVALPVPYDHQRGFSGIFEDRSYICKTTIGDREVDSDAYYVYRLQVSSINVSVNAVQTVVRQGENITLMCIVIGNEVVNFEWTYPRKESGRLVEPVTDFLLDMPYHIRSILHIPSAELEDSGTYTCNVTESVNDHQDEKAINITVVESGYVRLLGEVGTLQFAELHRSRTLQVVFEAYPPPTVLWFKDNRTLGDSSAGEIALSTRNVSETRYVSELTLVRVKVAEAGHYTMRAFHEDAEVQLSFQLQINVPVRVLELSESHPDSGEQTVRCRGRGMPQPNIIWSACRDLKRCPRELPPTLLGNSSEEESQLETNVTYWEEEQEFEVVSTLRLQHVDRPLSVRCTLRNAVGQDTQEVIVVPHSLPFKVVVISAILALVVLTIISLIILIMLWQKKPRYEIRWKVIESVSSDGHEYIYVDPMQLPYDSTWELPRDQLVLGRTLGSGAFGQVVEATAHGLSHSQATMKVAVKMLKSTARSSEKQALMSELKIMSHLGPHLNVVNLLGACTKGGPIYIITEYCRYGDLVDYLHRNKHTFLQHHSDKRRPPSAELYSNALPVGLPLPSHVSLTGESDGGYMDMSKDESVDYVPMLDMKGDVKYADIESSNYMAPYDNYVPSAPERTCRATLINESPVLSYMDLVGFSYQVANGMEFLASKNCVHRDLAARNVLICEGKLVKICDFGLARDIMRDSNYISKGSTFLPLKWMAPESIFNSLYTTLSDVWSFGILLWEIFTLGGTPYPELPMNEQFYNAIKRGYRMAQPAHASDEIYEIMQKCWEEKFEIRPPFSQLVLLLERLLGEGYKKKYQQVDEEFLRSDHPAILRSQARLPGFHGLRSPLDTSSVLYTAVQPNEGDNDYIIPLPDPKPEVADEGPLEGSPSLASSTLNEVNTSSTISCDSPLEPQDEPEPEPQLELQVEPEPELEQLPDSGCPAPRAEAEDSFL

IC50 [1]: 3 nM | IC50 [2]: 10 nM
Compound: CCc1cccc(NC(=O)Nc2ccc(-c3cc4ccccc4n3C(N)=O)cc2)c1
